Literature values as cited in US8658200B2, “Flavoring of drug-containing chewing gums” (McNeil-PPC, Inc., priority 2005, dated 2014).

Test system: adult

CN1CCCC1c1cccnc1 (stereo not shown) [nicotine, 3-(1-methyl-2-pyrrolidinyl)-pyridine]
amount of nicotine able to kill an adult: Approximately 40 milligrams
